Data: patent US11118208B2, “Methods for modulating protein galactosylation profiles of recombinant proteins using peracetyl galactose” (ARES TRADING S.A., priority 2016, dated 2021)

Experiments:
[1] = system: mAb1 cells (CHO-S cells expressing IgG1 mAb1); test: Fed-batch culture of mAb1 cells in TubeSpin (shake tubes): viable cell density, viability, titer; format: cell-based, Chinese hamster; conditions: shake tubes
Description: (§1) First assays were performed with an antibody produced in a CHO cell line: CHO-S cells expressing IgG1 mAb1, herein “Cells mAb1” or “mAb1 cells”. “mAb1” is a fully human monoclonal antibody directed against a soluble protein. Its isoelectric point (pI) is about 8.20-8.30.
(§2) Cells expressing mAb1 were inoculated at 0.3×10^6 cells per millilitre (mL), whereas Cells expressing mAb2 were inoculated at 0.2×10^6 cells per millilitre (mL).
(§3) For examples 1-3: A serum-free chemically defined culture medium was used. It was used as it is, or it was supplemented with α- or β-2-F-peracetyl galactose (herein α- or β-2F-pGal; Biosynth & AX Molecules) at different concentrations (0-200 μM before seeding). The concentrations indicated on FIGS. 1, 2, 3 and 4 are the concentrations in α- or β-2F-pGal in the culture medium at day 0, just before the inoculation. The culture medium was fed, on a regular basis, with a chemically defined feed medium, as well as with glucose in order to keep said glucose level in the range of >0 to about 8 g/L (feeds are done at days 3, 5, 7, 10 and 12).
(§4) The cultures were performed in deepwell plates (DWP) with a working volume of 450 μL. They were incubated at 36.5° C., 5% de CO2, 90% humidity and shaken at 320 rpm. Each of the fed-batch culture lasted 14 days. It is well known that experiments in DWP are artificial, although they allow a first screening of culture conditions. In order to confirm that the results obtained in DWP were reproducible at higher scale, similar experiments were also run in TubeSpin® (also called herein shake tubes or ST), with a working volume of 30 mL cell culture (same culture condition than for deepwell plates).
(§5) For TubeSpin® experiments, viable cell density and viability were measured with the ViCell®. Antibody titers were measured using Biacore®.

[2] = system: mAb1 cells (cell line 1); test: Fed-batch culture of mAb1 cells, supplementation as feed after the start of the culture: cell density, viability, titer; format: cell-based, Chinese hamster
Description: (§6) For example 4: Additional experiments were run in similar conditions, except with regard to supplementation with α- or β-2-F-peracetyl galactose. In such a case, a serum-free chemically defined culture medium was used, supplemented with α- or β-2-F-peracetyl galactose as mentioned thereafter in Table 2.
as §4, §5
Rather than supplementing the medium prior to inoculation, it was decided to start the galactose analog addition on day 3, 5 or 7 (respectively β-2F-pGal-d3, β-2F-pGal-d5 and β-2F-pGal-d7; see Table 2). Cell line 1 was used for these experiments. […] The peak cell densities were reached on day 7. No significant difference between the control and the β-2F-pGal-d3 supplemented cultures was observed. They both levelled off at 20.8 and 21.2×10^6 viable cells/mL, respectively. […] Overall, it can be assumed that the presence of β-2F-p-galactose induced limited changes on cell growth until day 7. In the second half of the culture, both the cell density and the viability (FIG. 11B) are correlated with the feed timing. Supplementation on day 3 most strongly impacted the course of the culture. At harvest, the cell density amounted to 9.8×10^6 viable cells/mL (control: 11.8×10^6 viable cells/mL). […] Feed addition on day 5 and 7, respectively, entailed viabilities on day 14 of 78 and 90% (control: 93%). According to FIG. 11C, no clear titer trend came forward. Early supplementation induced a slight titer increase on days 7 and 10, but then reduced productivity at later stages of the culture.

[3] = system: mAb1 cells (CHO-S cells expressing IgG1 mAb1); test: Fed-batch culture of mAb1 cells in deepwell plates (DWP): viable cell density, viability, titer; format: cell-based, Chinese hamster
Description: as §1, §2, §3, §4
For DWP experiments, viable cell density and viability were measured with the Guava easyCyte® flow cytometer. Antibody titers were measured with the fortéBIO Octet®.
(§7) The cells were cultivated and the results analysed as disclosed in the material and method section. It is noted that the controls (or control conditions) according to the present invention correspond to cells grown without peracetyl galactose.

[4] = system: galactosylation of mAb1 antibody (cell line 1); test: Glycosylation profile of mAb1, supplementation as feed after the start of the culture (CGE-LIF); format: cell-based, Chinese hamster
From the text: as §6
(§8) Glycosylation profiles were established by capillary gel electrophoresis with laser-induced fluorescence (CGE-LIF; for DWP and for Shake tubes experiments) or by Ultra Performance Liquid Chromatography-2-amino-benzamide labelling technique (2AB-UPLC; for Shake tubes experiments). Groups of glycans were defined as thereafter in Table 3.

[5] = system: galactosylation of mAb1 antibody (mAb1 cells); test: Glycosylation profile of mAb1 produced in TubeSpin (CGE-LIF); format: cell-based, Chinese hamster
Description: as §1, §3, §4, §8

[6] = system: galactosylation of mAb1 antibody (mAb1 cells); test: Glycosylation profile of mAb1 produced in DWP (CGE-LIF); format: cell-based, Chinese hamster
Description: as §1, §3, §4, §8, §7

[7] = system: CDC activity; conditions: degalactosylated antibody; cited from earlier work

In the case of `CC(=O)OC[C@H]1O[C@@H](OC(C)=O)[C@H](F)[C@@H](OC(C)=O)[C@H]1OC(C)=O` [β-2F-pGal, α/β-D-galactopyranose, 2-deoxy-2-fluoro-,1,3,4,6-tetraacetate], the “peak viable cell density at day 7” value ([1]; 60 μM) is reported as 12.8 ×10^6 viable cells/mL, the “product titer at the end of the culture (day 14)” value ([1]; 60 μM, listed as β-2F-p-galactose) is reported as 2225 mg/L and the “effect on cell culture performance” value ([1]; between 0 and 90 μM α-2F-p-galactose, 60 μM β-2F-p-galactose) is reported as “No detrimental effect”. For the same compound, the “protein titer compared to the control at culture days 5, 7, 10, 12 and 14” value ([1]; α 30-90 μM, β 60 μM, listed as β-2F-p-galactose) was “comparable to the control”, the “cell density at harvest” value ([2]; feed from day 3 (β-2F-pGal-d3)) was 9.8 ×106 viable cells/mL and the “protein titer (yield of the culture)” value ([2]; feed from day 3 (β-2F-pGal-d3)) was 2560 mg/L. The viability ([2]; feed from day 3 (β-2F-pGal-d3), second half of culture) was “below 60%”, the “peak cell density (day 7)” value ([2]; feed from day 3 (β-2F-pGal-d3: days 3, 5, 7, 10)) was 21.2 ×106 viable cells/mL and the “protein titer (yield of the culture)” value ([2]; feed from day 5 (β-2F-pGal-d5)) was 3215 mg/L. For the same compound, the “viability on day 14” value ([2]; feed from day 5 (β-2F-pGal-d5)) was 78%, the maximum cell density ([2]; feed from day 5 (β-2F-pGal-d5: days 5, 7, 10)) was 18.6 ×106 viable cells/mL and the “protein titer (yield of the culture)” value ([2]; feed from day 7 (β-2F-pGal-d7)) was 2100 mg/L. The “viability on day 14” value ([2]; feed from day 7 (β-2F-pGal-d7: days 7, 10)) was 90%, the “decrease of titers comparing to control” value ([3]; concentration higher than 60 μM) was “about 1.2 factor” and the “impact on protein titre” value ([3]; concentrations between 30 and 60) was “no impact on protein titre”. For the same compound, the “impact on cell growth” value ([3]; concentrations of about 60 μM and higher) was “negative impact on cell growth”, the “impact on cell growth until the end of culture” value ([3]; concentrations up to 30 μM in medium) was “no impact on cell growth” and the “protein titer compared to the control” value ([3]; media concentration up to 60 μM, day 10 and day 14) was “stays above the protein titer of the control”. The “impact on cell density, cell viability and protein titer” value ([3]; media concentrations below 30 μM) was “do not impact”, the “effects on the other glycan species” value ([4]; feed after the start of the culture) was “remained small” and the di-galactosylated entity decrease ([4]; feed from day 3) was −0.41. The mono-galactosylated species drop ([4]; feed from day 3) was −8.0%, the “overall galactosylation decrease (absolute change vs control)” value ([4]; feed from day 3 (β-2F-pGal-d3)) was −8.5% and the di-galactosylated entity decrease ([4]; feed from day 5) was −0.33. The mono-galactosylated species drop ([4]; feed from day 5) was −6.7%, the “overall galactosylation decrease (absolute change vs control)” value ([4]; feed from day 5 (β-2F-pGal-d5)) was −7.0% and the di-galactosylated entity decrease ([4]; feed from day 7) was −0.19. For the same compound, the mono-galactosylated species drop ([4]; feed from day 7) was −4.4%, the “overall galactosylation decrease (absolute change vs control)” value ([4]; feed from day 7 (β-2F-pGal-d7)) was −4.6% and the “total level of galactosylation decreased by (Example 2.2)” value ([5]; 60 μM β anomer, shake tubes, CGE-LIF, unit not given) was −5.0. The “absolute change of galactosylated N-oligosaccharides compared to the control” value ([5]; 60 μM, TubeSpin) was “around 4%”, the “monogalactosylated form changed by (Example 2.2)” value ([5]; 60 μM, shake tubes, CGE-LIF, listed as β-2F-peracetyl-galactose) was −4.7% and the “G1F absolute change compared to the control” value (“G1F absolute change” for short) ([6]; 30 μM) was 1.1%. The “G2F absolute change compared to the control” value (shortened to “G2F absolute change”) ([6]; 30 μM) was 0.20%, the “absolute change in galactosylated N-oligosaccharide compared to the control” value ([6]; 30 μM) was 2.2% and the “relative decrease of galactosylated N-oligosaccharides compared to control” value (“relative decrease” below) ([6]; 30 μM) was 22%. For the same compound, the “galactosylated N-oligosaccharides of the protein” value ([6]; 30 μM in medium) was 8.3%, the “G1F absolute change” value ([6]; 60 μM) was 2.5% and the “G2F absolute change” value ([6]; 60 μM) was 0.30%. The “absolute change in galactosylated N-oligosaccharide compared to the control” value ([6]; 60 μM) was 4.2%, the “relative decrease” value ([6]; 60 μM) was 40% and the “galactosylated N-oligosaccharides of the protein” value ([6]; 60 μM in medium) was 6.4%. For the same compound, the “G1F absolute change” value ([6]; 120 μM) was 3.1%, the “G2F absolute change” value ([6]; 120 μM) was 0.33% and the “absolute change in galactosylated N-oligosaccharide compared to the control” value ([6]; 120 μM) was 5.4%. The “relative decrease” value ([6]; 120 μM) was 52%, the “galactosylated N-oligosaccharides of the protein” value ([6]; 120 μM in medium) was 5.1% and the “G1F absolute change” value ([6]; 200 μM) was 4.4%. The “G2F absolute change” value ([6]; 200 μM) was 0.40%, the “absolute change in galactosylated N-oligosaccharide compared to the control” value ([6]; 200 μM) was 6.7% and the “relative decrease” value ([6]; 200 μM) was 64%. For the same compound, the “galactosylated N-oligosaccharides of the protein” value ([6]; 200 μM in medium) was 3.9%, the “inhibition effect on galactosylation” value ([6]; below 30) was “neither α- or β-2F-pGal does have a significant inhibition effect on galactosylation” and the “inhibition effect on galactosylation” value ([6]; concentrations higher than 30 μM) was “a significant inhibition effect is observed”.

In the case of “Rituxan: recombinant IgG whose degalactosylation was studied for CDC (Hodoniczky et al., 2005)”, the “change of CDC after degalactosylation relative to unmodified control Mab” value [7] is given as “reduced CDC by approximately half”.
